These compounds were tested on Plasmodium falciparum (assay: GSK_TCMDC: Inhibition of Plasmodium falciparum 3D7 in whole erythrocytes, using parasite LDH activity as an index of growth.). Settings: not given.
Assay type: functional, organism-based

SMILES | XC50 [nM]
CC(=O)Nc1ccc2[nH]cc(C3CCN(CC4CCC(NC(=O)/C=C/c5ccc(Cl)c(Cl)c5)CC4)CC3)c2c1 (stereo not given) | 441

Same assay, conditions: Plasmodium falciparum, 3D7

SMILES | XC50 [nM]
NC(=O)c1cccc(C(=O)Nc2cccc(-c3cccc(-c4nc5cc(C(F)(F)F)ccc5[nH]4)c3)c2)c1 | 126
Cn1ccnc1CCC(=O)Nc1ccc(Cl)cc1C(=O)Nc1ccc(Cl)cc1 | 1560
COc1ccc(C(C(=O)NC2CCN(C[C@H](O)c3ccnc4ccc(OC)cc34)CC2)N2CCN(c3ccc([N+](=O)[O-])cc3)CC2)cc1 (stereo not given in full) | 232
COc1ccc2[nH]c(C)cc(=NN=Cc3cc(OC)c(OC)cc3OC)c2c1 | 739
CC1CCCN(Cc2cc(Cl)cc(Cl)c2O)C1 (stereo not given) | 933
Cc1cccc2nc(-c3ccc(-c4cccc(CN5CCN(CCO)CC5)c4)cc3)[nH]c12 | 730
N=C(N)NCCCN(Cc1ccccc1)c1ccccc1 | 579
Cc1ccc(F)cc1S(=O)(=O)N1CCCCC(c2ccc(C(F)(F)F)cc2)=N1 | 937
CCCN(Cc1ccc(OCC)cc1)Cc1cc(=O)c2cc(Cl)ccc2[nH]1 | 1260
CCC(C)(C)c1ccc(N2C(N)=NC(N)=NC2(C)C)cc1 | 11.8
CN(C)CCOc1ccc(-c2cc(-c3ccc(Cl)c(O)c3)c(-c3ccnc(N)n3)o2)cc1 | 1320
N#Cc1ccc2c(c1)CN(C1CCC(NC(=O)/C=C/c3cc(C(F)(F)F)cc(C(F)(F)F)c3)CC1)CCC2 (stereo not given) | 1390
Cc1[nH]c2ccc(-c3ccccc3)cc2c(=O)c1Br | 162
Cc1cccc2nc(-c3cccc(-c4ccc(C(=O)N5CCCCC5C(C)O)cc4)c3)[nH]c12 (stereo not given) | 371
COc1cc(Nc2nccc(NCC(O)c3ccc(C(F)(F)F)cc3)n2)cc(OC)c1OC (stereo not given) | 920
CN(C)[C@@H]1C(O)=C(C(N)=O)C(=O)[C@@]2(O)C(O)=C3C(=O)c4c(O)ccc(C#Cc5ccccn5)c4C[C@H]3C[C@@H]12 | 760
O=C(c1ccc(-c2ccc(-c3nc4cc(F)ccc4[nH]3)cc2)cc1)N1CCCCC1CN1CCC(O)C1 (stereo not given) | 368
CCNC(=O)NC1CCN(Cc2c(-c3cccs3)nc3ccccc3c2C(=O)N[C@@H](C)C2CCCCC2)CC1 | 91.3
c1ccc(C(c2ccccc2)N2CCC(NCc3ccc(OCCCN4CCCCC4)cc3)CC2)cc1 | 557
O=C(Nc1cncc(NC(=O)c2ccc(Cl)c(Cl)c2)c1)c1ccc(Cl)c(Cl)c1 | 730
CC(=O)Nc1ccc2[nH]cc(C3CCN(CC4CCC(NC(=O)/C=C/c5ccc(Cl)c(Cl)c5)CC4)CC3)c2c1 (stereo not given) | 719
CCCCNCc1ccc(-c2nc(CN(CCCN3CCN(C)CC3)C(=O)Nc3cccc(Cl)c3)cs2)cc1 | 967
CCNc1cc(C(=O)N[C@@H](Cc2ccccc2)[C@H](O)CN[C@@H](C)c2cccc(OC)c2)cc(N2CCCC2=O)c1 | 769
COc1cc(NC(=O)c2sc(-c3ccc(Cl)cc3)cc2NC(=O)c2cccnc2)ccc1OCCN1CCCC1 | 380

SMILES | XC50 [nM]
CCCC1N=C(N)N=C(N)N1c1ccc(C)cc1 (stereo not given) | 95.2
c1ccc2cc3c(Nc4ccc(N5CCCCCC5)cc4)ccnc3cc2c1 | 936
O=C(/C=C/c1ccc(Cl)cc1Cl)N1CCC(CCN2CCC(c3c[nH]c4ccccc34)CC2)CC1 | 796
CCN(CC)c1ccc2nc(N)nc(N)c2c1 | 73.9
CC(C)OC(=O)c1ccc(NC(=O)N[C@@H](Cc2ccc(O)cc2)C(=O)NC2CC3CCC(C2)N3Cc2ccccc2)cc1 (stereo not given in full) | 1080
CCc1c(CCNC/C=C/C=C/CNCCc2ccc(OC)c(OC)c2CC)ccc(OC)c1OC | 968
O=C(Nc1ccc2c(c1)CCN(C1CCC1)CC2)c1ccc(-c2cn3ccccc3n2)cc1 | 879
CCSc1nc2sc3c(c2c(=O)n1-c1ccccc1)CCN(C)C3 | 457
Cc1cc(-c2ccc3c(c2)CCN(CCCOc2ccc4c(c2)CCN4C(=O)/C=C/c2ccccc2Cl)CC3)no1 | 1230
COC(=O)C(Cc1ccccc1)NC(=O)NC1CCN(c2ccnc(Nc3ccc(F)cc3)n2)C1 (stereo not given) | 1090
CC(C)(C)c1cc(C(=O)N2CCN(c3ncnc4ccsc34)CC2)n(Cc2ccccc2)n1 | 907
COc1ccc(CNCc2ccc(F)cc2)cc1-c1ccc(S(=O)(=O)NCCN2CCCC2)s1 | 706
CC(C)Cn1c(Sc2ccc(C#N)c([N+](=O)[O-])c2)nnc1-c1ccccc1 | 1090
CN(C)Cc1cccc(CNC(=O)c2sccc2OCc2ccc(Cl)cc2)c1 | 835
Cc1ccc(NC(=O)Nc2ccc(S(=O)(=O)c3ccc(NC(=O)Nc4ccc(C)c(Cl)c4)cc3)cc2)cc1Cl | 754
CC(C)Oc1cc2c(cc1NS(=O)(=O)c1ccc(-c3cccs3)cc1)CCN(C)CC2 | 961
COc1ccc2nccc([C@@H](O)CN3CCC(NC(=O)c4cc5c(F)cc(F)cc5[nH]4)CC3)c2c1 | 245
COc1ccc(NC(=O)C2c3ccccc3C(=O)N(C3CCCC3)C2c2cccs2)cc1OC (stereo not given) | 1090
CCNCc1ccc(-c2cccc(-c3nc4ccccc4[nH]3)c2)cc1 | 550
Nc1ncc(-c2ccc(Br)cc2)c(N)n1 | 920
CCNc1cc(C(=O)N[C@@H](Cc2ccccc2)[C@H](O)CNCc2ccc3c(c2)OCCO3)cc(N2CCCCS2(=O)=O)c1 | 1350
CC(C)C[C@@H](/C=N/N1CCOC1=O)NC(=O)[C@H](CC(C)C)NC(=O)c1ccc(F)cc1 | 1170
CC(Cc1ccc(OCCCCOc2ccccc2)cc1)NCCCc1nc2ccccc2[nH]1 (stereo not given) | 981
Cc1ccc(CC(C)NC[C@H](O)c2cccc(Cl)c2)cc1 (stereo not given in full) | 860

SMILES | XC50 [nM]
CN1CCN(c2cc(-c3cccc(C(F)(F)F)c3)nc(-c3ccncc3)n2)CC1 | 731
CC(C)N1CCC(Oc2ccc(CN3CCN(C(c4ccccc4)c4ccc(Cl)cc4)CC3)cc2)CC1 (stereo not given) | 937
Clc1ccc(OCc2ccccc2)c(-c2nc(-c3nc4ncc(Br)cc4[nH]3)cs2)c1 | 214
CCc1nnc2sc(-c3cccc(NC(=O)c4ccc(C)c([N+](=O)[O-])c4)c3)nn12 | 1410
CN(C)CCOc1cc(NC(=O)c2ccc(-c3ccc(Cl)cc3Cl)cc2)ccc1-c1ccccc1 | 906
CN1CCN(c2ccc(Nc3nccc(-c4c(-c5cccc(NC(=O)c6c(F)cccc6F)c5)nn5ccccc45)n3)cc2)CC1 | 112
NC1CCN(c2cnn(Cc3cccc(NC(=O)Nc4ccc(-c5ccccc5)cc4)c3)c(=O)c2Cl)CC1 | 1140
CCOC(=O)C(Oc1ccc2ccccc2c1)C(=O)OCC | 756
Cc1nc(-c2cccc3c(NC(=O)Nc4ccc5nccc(N6CCN(C)CC6)c5c4)cccc23)no1 | 235
O=[N+]([O-])c1ccc(-c2nc3cc(C4=NC5CCCCC5N4)ccc3[nH]2)cc1 (stereo not given) | 691
O=C(c1cc(-c2cccs2)n[nH]1)N1CCN(S(=O)(=O)c2ccc(Cl)cc2)CC1 | 292
O=C(Nc1cc(Cl)cc(Cl)c1)c1cc(Cl)c(=O)n(Cc2ccc(Cl)cc2)c1 | 863
CC(C)(CNCc1ccc(Cl)c(Cl)c1)c1nc(-c2ccc(Cl)c(O)c2)c(-c2ccncc2)[nH]1 | 757
Cc1nc(N)nc(N)c1-c1ccc(Br)c(Br)c1 | 53.6
COc1cc2ccccc2cc1CCNCCCCNCCc1cc2ccccc2cc1OC | 403
COC(=O)/C=C/c1ccc(CC(C)NCC(O)c2cccc(Br)c2)cc1 (stereo not given) | 725
N#Cc1cccc(NC(=O)Nc2ccc(CC(=O)N3CCc4cc(Cl)c(N5CCN(C/C=C/c6ccccc6)CC5)cc43)cc2)c1 | 875
COC(=O)[C@@H](NC(=O)[C@@H](Nc1ccc(C#N)c2ccccc12)C(C)(C)C)c1ccc(O)cc1 | 777
COc1cc(CCCOc2c(N)nc(N)nc2N)cc(OC)c1OC | 1220
Cc1ccc(-c2nc(N3CCN(C(=O)c4ccco4)CC3)c3ccc(Cl)cc3n2)cc1 | 1210
N#Cc1cccc(CN2CCCN(Cc3cccc(C(=O)Nc4ccc(Cl)cc4)c3)CC2)c1 | 1180
COc1cc(OC)nc(C(Sc2ccc(NC(=O)c3cccs3)cc2)c2ccccc2)n1 (stereo not given) | 57.5
Cc1ccc(C2(C)CN(CCCOc3cccc(-c4ccc(C(=O)NC(C)C)cc4)c3)CCO2)cc1 (stereo not given) | 960
O=C(CC1NC(=O)c2ccccc21)Nc1ccc(-c2cccc(-c3nc4cc(C(F)(F)F)ccc4[nH]3)c2)cc1 (stereo not given) | 958

SMILES | XC50 [nM]
O=C(/C=C/c1ccc(Cl)c(Cl)c1)NCCCCCCN1CCCN(C(=O)Nc2cc(Cl)cc(Cl)c2)CC1 | 780
c1ccc(N2CCN(c3cc(-c4cccnc4)nc(-c4ccncc4)n3)CC2)nc1 | 757
CC(=O)Nc1cccc(-c2cnc(N)c3cc(-c4ccc5c(c4)OCO5)ccc23)c1 | 491
CNC(=O)C1Cc2c([nH]c3ccc(Br)cc23)C2(CCN(CCc3ccccc3)CC2)N1 (stereo not given) | 919
c1ccc2oc(-c3cc4ccncc4cc3OC3CCNCC3)cc2c1 | 1470
CC(CN1CCN(C)CC1)C(=O)Nc1ccc(-c2ccc(-c3nc4cc(C(F)(F)F)ccc4[nH]3)cc2)cc1 (stereo not given) | 415
CCCCc1ccc(NC(=O)Nc2cccc(CCNCc3ccccc3)c2)cc1 | 881
Cn1cc(C2CCN(CCCCNC(=O)c3ccc(-c4ccc(C(F)(F)F)cc4)c(CO)c3)CC2)c2ccccc21 | 1000
Cc1nc(-c2ccc3c(c2)CCN(CCC2CCC(NC(=O)c4cc5cccc(Cl)c5[nH]4)CC2)CC3)no1 (stereo not given) | 633
COc1ccc(NC(=O)Nc2ccc(Nc3nc(C)cc(N4CCCC4)n3)cc2)cc1 | 135
Cc1cc(-c2ccc3occ(CCN)c3c2)cnc1N | 877
O=C(NC1CCC(N2CCC(c3nc4ccccc4s3)CC2)CC1)c1cc2ccccc2[nH]1 (stereo not given) | 926
CC(C)N1CCC(N(Cc2ccc(-c3ccc(C(F)(F)F)cc3)cc2)C(=O)CCCn2c(CCc3cccc(F)c3F)nc(=O)c3ccccc32)CC1 | 972
O=C(Nc1cccc(-c2cccc(CN3CCCC3)c2)c1)c1cccc(Cl)c1 | 1180
CCOc1ccc(-c2nc(NC(=O)CS(=O)(=O)c3ccccc3)sc2C)cc1 | 510
Cc1ccc(NC(=O)c2ccc(CN3CCCN(CC4CCCCC4)CC3)cc2)cc1C | 1020
COc1ccc(-c2ccc(NC(=O)c3ccc(C#N)cc3)cc2)cc1CN1CCN(C)CC1 | 721
Cc1ccccc1C1=CCN(CCCN2c3ccccc3Sc3ccc(Cl)cc32)CC1 | 871
OCC1CCCCN1Cc1cccc(-c2cccc(-c3nc4ccccc4[nH]3)c2)c1 (stereo not given) | 779
O=C(Nc1ccc(Br)cc1)N(CCN1CCOCC1)CC(O)COc1ccc(Cl)c(F)c1 (stereo not given) | 1040
Cc1ccc(C2(CN3CCC(NC(=O)c4n[nH]cc4Cl)CC3)CCCCC2)cc1 | 321
CN1CCC(C(=O)N(Cc2ccc(-c3ccc(CNCCc4ccc(S(C)(=O)=O)cc4)cn3)cc2)Cc2ccc3c(c2)OCO3)CC1 | 1000

Source: ChEMBL document CHEMBL1157539, “Thousands of chemical starting points for antimalarial lead identification” (Nature, 2010)
